# PubChem BioAssay (NCI)
# Where “and” joins values, the source holds several entries; their conditions need not be identical. Identical values can stand only once.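 Protocol summary: plate cells (96-well), add compound at 5 concentrations, incubate 48 h, interpolate endpoints linearly. Abbreviation: GI50, concentration required for 50% inhibition of growth. Definition used: TGI = concentration required for complete inhibition of growth.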 Where a SMILES comes first, the peptide text is derived from it. The star is where a group is joined. Palmitoyl = CCCCCCCCCCCCCCCC(=O)*
# Columns and labels:
# Assay in all cases: NCI tumour cell line growth inhibition, 48 h
# HCC-2998 colon = test system: HCC-2998 colon
# HOP-62 NSCLC = test system: HOP-62 NSCLC
# HS 578T breast = test system: HS 578T breast
# HT29 colon = test system: HT29 colon
# NCI-H226 lung = test system: NCI-H226 lung
# OVCAR-5 ovarian = test system: OVCAR-5 ovarian
# RXF 393 renal = test system: RXF 393 renal
# SN12C renal = test system: SN12C renal
# SNB-19 CNS = test system: SNB-19 CNS
# UO-31 renal = test system: UO-31 renal
Structure (SMILES),TGI (HCC-2998 colon) [µM],TGI (HOP-62 NSCLC) [µM],TGI (HS 578T breast) [µM],TGI (HT29 colon) [µM],TGI (NCI-H226 lung) [µM],TGI (OVCAR-5 ovarian) [µM],TGI (RXF 393 renal),TGI (SN12C renal) [µM],TGI (SNB-19 CNS) [µM],TGI (UO-31 renal) [µM],GI50 (HCC-2998 colon) [µM],GI50 (HOP-62 NSCLC) [µM],GI50 (HS 578T breast) [µM],GI50 (HT29 colon) [µM],GI50 (NCI-H226 lung) [µM],GI50 (OVCAR-5 ovarian) [µM],GI50 (RXF 393 renal) [µM],GI50 (SNB-19 CNS) [µM],GI50 (UO-31 renal) [µM],GI50 (SN12C renal) [µM]
O=[N+]([O-])c1cc2oc(CSc3ccccc3)nc2cc1Cl,64.5,> 100,> 100,> 100,91.1,> 100,93 µM,> 100,> 100,87.3,,,,,,,,,,
N#Cc1sc2c(c1OC(=O)c1ccc(C(F)(F)F)cc1)c(=O)n(-c1ccccc1)c(=S)n2-c1ccccc1,> 100,> 100,91.7,82.5,99.8,> 100,61.7 µM,88.1,> 100,,,,,,,,,,,
Cc1ccsc1/C=N/Nc1cnccn1,> 100,> 100,> 100,> 100,> 100,> 100,> 100 µM,> 100,> 100,> 100,,,,,,,,,,
CC1(C)C=CC(=O)C(O)C(C)(C)C1=O (configuration not stated),,> 100,> 100,> 100,> 100,> 100,> 100 µM,> 100,> 100,> 100,,,,,,,,,,
C=C(C)CNCCN,,> 100,> 100,> 100,> 100,> 100,> 100 µM,> 100,> 100,> 100,,,,,,,,,,
CC(C)(C)c1ccc2c(c1)C#Cc1cc3c(cc1OCCCO2)C#Cc1cc(C(C)(C)C)ccc1OCCCO3,> 100,> 100,> 100,> 100,,> 100,> 100 µM,> 100,> 100,,,,,,,,,,,
O[C@H]1[C@H](O)[C@@H](O)CN2CC[C@H](O)[C@H]12,> 100,> 100,,> 100,> 100,> 100,> 100 µM,> 100,> 100,> 100,,,,,,,,,,
Cn1ncc2c(NCc3ccccc3)ncnc21,> 100,> 100,,> 100,> 100,> 100,> 100 µM,> 100,> 100,> 100,,,,,,,,,,
COc1cc(Nc2ccc3c(c2)CCC3)nc(OC)n1,61.6,> 100,42.6,51.4,> 100,> 100,,> 100,> 100,,,,,,,,,,,
N#CC(c1ccccc1)N(CCOCCOCCN(C(=O)c1ccccc1)C(C#N)c1ccccc1)C(=O)c1ccccc1 (configuration not stated),> 100,,> 100,> 100,> 100,> 100,> 100 µM,> 100,> 100,> 100,,,,,,,,,,
Cc1cc(OP2(=O)NCc3ncccc3O2)ccc1Cl (configuration not stated),> 100,> 100,,,> 100,> 100,> 100 µM,> 100,> 100,> 100,,,,,,,,,,
COc1cc(C=O)ccc1O,> 100,> 100,> 100,> 100,> 100,> 100,,> 100,> 100,> 100,,,,,,,,,,
O=C1NC(O)CCN1C1OC(CO)C(O)C1O (configuration not stated),> 250,> 250,,> 250,> 250,> 145,> 250 µM,> 250,> 250,> 250,,,,,,,,,,
COc1cc(C2c3cc4c(cc3[C@@H](Nc3ccccc3)C3COC(=O)[C@H]23)OCO4)cc(OC)c1O (some centres not stated),3.35,0.671,,3.64,2.12,> 66.8,6.8 µM,6.03,11.3,5.07,,,,,,,,,,
CCOC(=O)CNC(=O)NC12CC3CC(CC(C3)C1)C2,319,> 502,,> 550,> 473,> 550,259 µM,> 550,548,512,,,,,,,,,,
Clc1sc(Cl)c2c1[C@@H](Cl)C[C@@H]2Br,> 100,> 100,> 100,> 100,,> 100,> 100 µM,> 100,> 100,> 100,,,,,,,,,,
COc1cc2c(cc1OCCCN1C(=O)c3cccc4cccc(c34)C1=O)N=C[C@@H]1CCCN1C2=O,> 100,> 100,,> 100,> 100,> 100,34.2 µM,> 100,> 100,> 71,,,,,,,,,,
O=C1/C(=C/c2ccc(Cl)cc2)CCCc2ccccc21,36.7,57.7,28.1,19.7,35.9,31.9,,33.3,43.6,35.4,,,,,,,,,,
COC1OC2COC(c3ccccc3)OC2C(O)C1OC(=S)c1ccccc1 (configuration not stated),,91.4,> 100,47.9,> 100,> 100,> 100 µM,48.4,> 100,> 100,,,,,,,,,,
COc1ccc2oc(=N)c(C(=O)Nc3ccccc3)cc2c1,,41.7,39.6,> 100,> 100,> 100,42.3 µM,> 100,> 100,> 100,,,,,,,,,,
CCOC(=O)/C=C1/C(CCCOCc2ccccc2)C2CCCC23CC2(CCN13)OCCO2 (configuration not stated),> 100,,,45.4,66.7,> 100,37.5 µM,86.8,> 100,64.5,,,,,,,,,,
CN1Cc2c(nc(-c3ccccc3)c[n+]2[O-])N(C)C1,> 100,> 100,,> 100,> 100,> 100,,> 100,> 100,> 100,,,,,,,,,,
C[C@@H]1CC[C@H]2[C@H]1[C@H]1[C@@H](CC[C@]2(C)N=C=S)C1(C)C,83.4,> 100,> 100,52.7,38.8,> 100,30.5 µM,44.7,,> 100,,,,,,,,,,

Structure (SMILES),TGI (HCC-2998 colon) [µM],TGI (HOP-62 NSCLC) [µM],TGI (HS 578T breast) [µM],TGI (HT29 colon) [µM],TGI (NCI-H226 lung) [µM],TGI (OVCAR-5 ovarian) [µM],TGI (RXF 393 renal),TGI (SN12C renal) [µM],TGI (SNB-19 CNS) [µM],TGI (UO-31 renal) [µM],GI50 (HCC-2998 colon) [µM],GI50 (HOP-62 NSCLC) [µM],GI50 (HS 578T breast) [µM],GI50 (HT29 colon) [µM],GI50 (NCI-H226 lung) [µM],GI50 (OVCAR-5 ovarian) [µM],GI50 (RXF 393 renal) [µM],GI50 (SNB-19 CNS) [µM],GI50 (UO-31 renal) [µM],GI50 (SN12C renal) [µM]
CCCCCCCCCCCCCCCC(=O)N1CCCC1C(=O)NCC(=O)NC(Cc1ccccc1)C(=O)N1CCCC1C(=O)NC(CO)C(=O)NC(Cc1ccc(O)cc1)C(=O)NC(CCCCN)C(=O)NC(CC(C)C)C(=O)NC(CCCN=C(N)N)C(=O)N1CCCC1C(=O)NCC(N)=O (configuration not stated) (Palmitoyl-PGFPSYKLRPG-NH2; configuration not given here),24.1,48,74.5,29.3,44.4,37.8,53 µM,,55.5,56.8,10.4,22.9,22.2,15.8,23.5,17.1,23.2,25.7,20.5,
CC(C)(CO)CNc1nc(N)nc(Cl)c1/C=N/O,> 100,> 100,> 100,> 100,> 100,> 100,> 100 µM,> 100,,> 100,,,,,,,,,,
Cc1cc(C)nc(NC(=S)Nc2ccc([N+](=O)[O-])cc2)c1,> 100,> 100,> 100,> 100,> 100,,> 100 µM,,> 100,> 100,,,,,,,,,,
Nc1ncnc2c1ccn2C/C=C/CO,> 100,> 100,> 100,> 100,,> 100,> 100 µM,> 100,> 100,> 100,,,,,,,,,,
O=C1CSC2(CC(/C=C/c3cccs3)=NN2c2cccc(S(=O)(=O)O)c2)N1c1nc2ccccc2s1 (configuration not stated),> 100,,> 100,> 100,> 100,> 100,> 100 µM,> 100,> 100,> 100,,,,,,,,,,
CC(C)(C)N=C(N)NC#N,> 100,> 100,> 100,> 100,,> 100,> 100 µM,> 100,> 100,> 100,,,,,,,,,,
Cc1ccnc(NC(=S)Nc2ccc([N+](=O)[O-])cc2)c1,> 100,> 100,94.8,> 100,> 100,,> 100 µM,,> 100,> 100,,,,,,,,,,
O=C(CNc1ccc(Cl)cc1Cl)Nn1c(-c2ccccc2)nc2ccccc2c1=O,31.8,,71.8,37.6,58.3,37.5,36.5 µM,30.5,33.9,48.4,,,,,,,,,,
Nc1ncc2c(n1)-c1ccccc1OC2N1CCCC1 (configuration not stated),,> 100,> 100,> 100,> 100,> 100,> 100 µM,> 100,> 100,> 100,,,,,,,,,,
CC(C(=O)COCc1ccccc1)P1(=O)OC(C)(C)CN1C(C)(C)C (configuration not stated),> 100,> 100,> 100,> 100,> 100,> 100,> 100 µM,> 100,,> 100,,,,,,,,,,
CN1CCN(Cc2cc3c(nn2)-c2ccccc2C3=O)CC1,,,> 100,> 100,> 100,> 100,> 100 µM,,> 100,> 100,,,,,,,,,,
O=C(NN1C(=O)CS(=O)(=O)C1c1ccc(C(F)(F)F)cc1)c1ccncc1 (configuration not stated),> 100,> 100,,> 100,> 100,> 100,> 100 µM,> 100,> 100,,,,,,,,,,,
Cc1cc(N(C)C)c2ccccc2[n+]1CCCCCCCCCC[n+]1c(C)cc(N(C)C)c2ccccc21,13.5,,> 95.3,> 35,> 100,15.6,35 µM,4.72,8.19,13.1,,,,,,,,,,
COc1cccc2c1OC(c1cccc3ccccc13)C([N+](=O)[O-])=C2 (configuration not stated),,5.36,11,4.5,4.32,3.62,2.58 µM,11.2,3.01,2.75,,,,,,,,,,
C=C(C)[C@H]1C2=CC(C(=O)OC)=C(C[C@H](C(=C)C)[C@@H](O)[C@@H](O)C3=C[C@H]1OC3=O)O2,,> 100,> 100,> 100,> 100,> 100,> 100 µM,> 100,> 100,85.6,,,,,,,,,,
C=C(CN(C)C)C(=O)c1ccc(C(=O)C(=C)CN(C)C)cc1,> 100,,,> 100,> 100,> 100,> 100 µM,> 100,> 100,> 100,,,,,,,,,,
[N-]=[N+]=CC(=O)OC(CCl)CCl,> 100,> 100,,> 100,> 100,> 100,> 100 µM,> 100,> 100,> 100,,,,,,,,,,
CCN(CC)c1ccc(/C=C/c2ccnc3ccccc23)cc1,> 100,> 100,> 100,> 100,,> 100,> 100 µM,> 100,> 100,> 100,,,,,,,,,,
O=C1C(=Nc2ccc(Nc3ccccc3)cc2)Oc2ccccc21,23.4,22,,4.53,16.8,10.1,4.89 µM,4.62,8.25,5.58,,,,,,,,,,
C=CC1(C)CC(=O)C2(O)C(C)(O1)C(OC(C)=O)C(O)C1C(C)(C)CCC(O)C12C (configuration not stated),> 150,> 150,,> 150,> 72.8,45.5,90.6 µM and > 119 µM,> 102,> 150,> 137,,> 83.2,,,,,4.98,,> 72.5,> 49
CC12c3c4ccc(C=O)c3Oc3ccc(C=O)c(c31)Oc1ccc(C=O)c(c12)O4,,> 25,> 25,> 25,> 25,> 25,> 25 µM,> 25,> 25,> 25,,,,,,,,,,
O=C(OCC(Cl)(Cl)Cl)N1CC[C@H](C2CCCCC2)C1,34.3,32.8,,,,34.4,36.8 µM,> 100,37.5,35.3,,,,,,,,,,
